This is an account of results in patent US7935806B2, “Method for performing in vitro diagnosis using gene regulation mechanisms and corresponding diagnosis kit” (Unisensor S.A., priority 2001, dated 2011).

The target in assay [1] is MetJ (Escherichia coli, UniProt P0A8U6). Conditions: in the presence of the co-repressor; cited from earlier work.
The target of assay [2] is T1, tetR of class C (Escherichia coli, UniProt P03039).
T1 construct: two primers have been selected for amplification by PCR of the gene which has then been cloned in a pet12a-expression plasmid; made in house; host or cells: E. coli HB101 carrying pT7po123; expression plasmid pet12a
T1 sequence (P03039 whole entry): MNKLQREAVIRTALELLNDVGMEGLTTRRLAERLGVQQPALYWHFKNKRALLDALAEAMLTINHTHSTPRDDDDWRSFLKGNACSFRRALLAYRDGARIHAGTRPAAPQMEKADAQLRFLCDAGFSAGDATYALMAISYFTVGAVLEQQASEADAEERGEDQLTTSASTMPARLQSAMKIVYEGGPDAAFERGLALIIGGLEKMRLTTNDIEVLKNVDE
The class given is binding, E. Coli C600. Conditions: 25 ppb in honey, read with the naked eye.
Method: In the example showing the measurement of the concentration based on samples of honey, one unpurified part of serum obtained above is placed in the presence of one part of tetR receptor obtained above in 1.1.1, 15 parts of A-protein marked by means of particles of colloidal gold of 40 nm and one DO at 500 nm of 10 (available from Unisensor S.A., Liege, Belgium) and 20 parts of lyophilisation buffer (Tris 10 mM, pH 8, BSA 5 mg/ml, sucrose 10 g/l). This mixture is lyophilised for 20 hours.
To 1 gram of honey are added 3 ml of dilution buffer (for 1 litre, 2.73 g of Na2HPO4.2H2O, 1.65 g of citric acid, 7 g of BSA and 2.5 g of Tween-20, pH 5) and the solutin is stirred vigorously so as to obtain a homogeneous solution. 200 μl of this dilution of the sample of honey are then incubated in the presence of the lyophilisate prepared above (see Point 1.1.2.2). After 10 minutes of incubation at ambient temperature (±20° C.), the analysis strip described above at 1.3 is immersed in the solution. The final interpretation is made with the naked eye, after 15 minutes of incubation at ambient temperature.

Assay [3] addresses T2, avidin (Gallus gallus, UniProt P02701).
T2 construct: The avidin is a tetrameric glycoprotein isolated from egg-white; from tissue; host or cells: egg-white
Conditions: non-covalent; cited from earlier work.

Chain of MetJ (P0A8U6 2-105): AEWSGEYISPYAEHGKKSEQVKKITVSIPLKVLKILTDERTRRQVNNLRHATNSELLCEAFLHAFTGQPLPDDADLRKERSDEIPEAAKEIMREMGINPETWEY
T2 sequence (P02701 25-152): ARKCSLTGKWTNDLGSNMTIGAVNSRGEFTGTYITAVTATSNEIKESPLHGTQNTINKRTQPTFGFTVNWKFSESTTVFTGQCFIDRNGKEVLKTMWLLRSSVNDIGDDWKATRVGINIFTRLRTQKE

As to `C[S+](CC[C@H](N)C(=O)[O-])C[C@H]1O[C@@H](n2cnc3c(N)ncnc32)[C@H](O)[C@@H]1O` (stereo partly drawn) [s-adenosylmethionine], the “increase of MetJ affinity for DNA” value in assay [1] is “more than 1,000 times”.

In the case of `CN(C)[C@@H]1C(O)=C(C(N)=O)C(=O)[C@@]2(O)C(O)=C3C(=O)c4c(O)ccc(Cl)c4[C@@H](O)[C@H]3C[C@@H]12` [demedocycline], the “test result (test signal lower than control signal = positive)” value in assay [2] is reported as “positive result”.

Regarding `O=C(O)CCCC[C@@H]1SC[C@@H]2NC(=O)N[C@@H]21` [biotin], the “affinity of avidin sub-unit for biotin (Ka)” value in assay [3] was 10^15 M^−1.
